Measurements reported in paper PMC6981581, “N-(2-Arylmethylthio-4-Chloro-5-Methylbenzenesulfonyl)amide Derivatives as Potential Antimicrobial Agents—Synthesis and Biological Studies” (International Journal of Molecular Sciences, 2019).
In brackets after ≈: the same amount, converted by molar mass. Several values for one entry are separate records, joined by “and”; a condition that tells them apart may be missing. Equal entries are not always repeated. Where two headings read alike, the source gives them in different places.

Experiments:
Type in all cases: cell-based
[1] = test system: Candida albicans ATCC 10231; experiment: Broth dilution MIC/MFC, reference fungal strain; details: for MFC/MIC: C. a. ATCC 10231; for MFC / MIC: Candida albicans, ATCC10231, C. albicans ATCC 10231; for MFC: read-out: MFC; for MIC: read-out: MIC
Method: (§1) The tests were carried out using a serial dilution method, allowing the determination of MIC (minimal concentration inhibiting bacterial growth), MBC (minimal bactericidal concentration), and MFC (minimal fungicidal concentration) values.
(§2) Antimicrobial activity was tested using the following reference strains: Staphylococcus aureus ATCC 6538 (MSSA), Staphylococcus aureus ATCC 43300 (MRSA), Staphylococcus epidermidis PCM 2118, Escherichia coli ATCC 11229, Pseudomonas aeruginosa ATCC 15442, Proteus vulgaris NCTC 4635, Enterococcus faecalis ATCC 11420, and Candida albicans ATCC 10231.
(§3) A broth dilution method was used to determine minimal inhibitory concentration (MIC) for tested compounds as recommended by Clinical Laboratory Standards Institute (CLSI) guidelines. Investigated compounds were diluted in Mueller Hinton Broth 2 (Sigma-Aldrich Co., St. Louis, MO, USA) in polypropylene 96-well plates and initial inoculum 5 × 10^5 cfu/mL were incubated at 37 °C for 18 h. MIC was taken as the lowest drug concentration at which an observable growth was inhibited. […] The loopful (10 µL) of the tested sample was transferred to Tryptic Soy Agar (TSA, Becton-Dickinson, Franklin Lakes, NJ, USA) and incubated at 37 °C for 48 h. […] Drug Solutions were made fresh on the day of the assay. All experiments were performed in triplicate.

[2] = test system: HaCaT cell line (human keratinocyte); experiment: MTT cell viability assay; details: MTT assay, 72 h incubation, mean ± SD, read-out: IC50 HaCaT
HCT-116 (colon cancer) = experiment: MTT cell viability assay; details: Homo sapiens, 72 h incubation, mean ± SD
Method: (§4) Analysis was performed using the MTT test and 72 h of incubation.
(§5) All chemicals were obtained from Sigma-Aldrich (St. Louis, MO, USA). The MCF-7 and HeLa cell lines were purchased from Cell Lines Services (Eppelheim, Germany), the HCT-116 cell line was purchased from ATCC (ATCC-No: CCL-247). Cells were cultured in Dulbecco’s modified Eagle’s medium (DMEM) supplemented with 10% fetal bovine serum, 2 mM glutamine, 100 units/mL penicillin, and 100 μg/mL streptomycin. Cultures were held in an incubator (Heraceus, HeraCell) in a humidified atmosphere with 5% CO2 at 37 °C.
(§6) Cell viability was evaluated using the MTT (3-(4,5-dimethylthiazol-2-yl)-2,5-diphenyltetrazolium bromide) assay. Stock solutions of the studied compounds were obtained in 100% DMSO. […] Cells at a density of 5 × 10^3 cells/well, seeded in 96-well plates, were treated for 72 h with the tested compounds in the concentration range 1–100 μM (1, 10, 25, 50 and 100 μM). After treatment, cells were incubated for 2 h with MTT (0.5 mg/mL) at 37 °C. Cells were lysed with DMSO and the absorbance of the formazan solution was measured at 550 nm with a plate reader (1420 multilabel counter, Victor, Jügesheim, Germany). Values are expressed as the mean ± SD of at least three independent experiments conducted in triplicate.

MCF-7 (breast cancer) = experiment: MTT cell viability assay; details: Homo sapiens, MCF7, 72 h incubation, mean ± SD
Method: as §4, §5, §6

HeLa (cervical cancer) = experiment: MTT cell viability assay; details: Homo sapiens, 72 h incubation, mean ± SD
Method: as §4, §5, §6

[3] = test system: Staphylococcus aureus ATCC 6538 (MSSA); experiment: Broth dilution MIC/MBC, reference strain; details: for MBC/MIC: S. a. ATCC 6538; for MBC / MIC: Staphylococcus aureus, S. aureus ATCC 6538; for MBC: read-out: MBC; for MIC: read-out: MIC
Method: as §1, §2, §3

[4] = test system: Staphylococcus epidermidis PCM 2118; experiment: Broth dilution MIC/MBC, reference strain; details: for MBC/MIC: S. e. PCM 2118; for MIC: read-out: MIC
Method: as §1, §2, §3

[5] = test system: Staphylococcus aureus ATCC 43300 (MRSA); experiment: Broth dilution MIC/MBC, reference strain; details: for MBC/MIC: S. a. ATCC 43300; for MBC / MIC: Staphylococcus aureus, S. aureus ATCC 43300; for MBC: read-out: MBC; for MIC: read-out: MIC
Method: as §1, §2, §3

[6] = test system: Escherichia coli ATCC 11229; experiment: Broth dilution MIC/MBC, reference strain; details: for MBC/MIC: E. c. ATCC 11229; for MBC / MIC: Escherichia coli, ATCC11229, E. coli ATCC 11229; for MBC: read-out: MBC; for MIC: read-out: MIC
Method: as §1, §2, §3

[7] = test system: Proteus vulgaris NCTC 4635; experiment: Broth dilution MIC/MBC, reference strain; details: for MBC/MIC: P. v. NCTC 4635; for MBC / MIC: Proteus vulgaris, NCTC4635, P. vulgaris NCTC 4635; for MBC: read-out: MBC; for MIC: read-out: MIC
Method: as §1, §2, §3

[8] = test system: Pseudomonas aeruginosa ATCC 15442; experiment: Broth dilution MIC/MBC, reference strain; details: for MBC/MIC: P. a. ATCC 15442; for MBC / MIC: Pseudomonas aeruginosa, ATCC15442, P. aeruginosa ATCC 15442; for MBC: read-out: MBC; for MIC: read-out: MIC
Method: as §1, §2, §3

[9] = test system: Enterococcus faecalis ATCC 11420; experiment: Broth dilution MIC/MBC, reference strain; details: for MBC/MIC: E. f. ATCC 11420; for MBC / MIC: Enterococcus faecalis, ATCC11420, E. faecalis ATCC 11420; for MBC: read-out: MBC; for MIC: read-out: MIC
Method: as §1, §2, §3

[10] = Staphylococcus epidermidis, PCM2118, S. epidermidis PCM 2118

| Structure (SMILES) | MFC/MIC [1] | MFC [1] [µg/mL] | MIC [1] [µg/mL] | IC50 [2] | IC50 (HCT-116 (colon cancer)) [µM] | IC50 (MCF-7 (breast cancer)) [µM] | IC50 (HeLa (cervical cancer)) [µM] | MBC/MIC [3] | MBC [3] [µg/mL] | MIC [3] [µg/mL] | MBC/MIC [4] | MIC [4, 10] [µg/mL] | MBC/MIC [5] | MBC [5] [µg/mL] | MIC [5] [µg/mL] | MBC/MIC [6] | MBC [6] [µg/mL] | MIC [6] [µg/mL] | MBC/MIC [7] | MBC [7] [µg/mL] | also measured |
| --- | --- | --- | --- | --- | --- | --- | --- | --- | --- | --- | --- | --- | --- | --- | --- | --- | --- | --- | --- | --- | --- |
| Cc1cc(S(=O)(=O)NC(=O)C=Cc2ccccc2)c(SCc2ccc(C(F)(F)F)cc2)cc1Cl [Compound 14, N-[4-Chloro-5-methyl-2-(4-trifluoromethylbenzylthio)benzenesulfonyl]cinnamamide] | 2 | 128 (≈ 243 µM) | 64 (≈ 122 µM) | 147 µg/mL and 280 µM | 81 ± 1 | 73 ± 1 | 96 ± 5 | 16 | 128 (≈ 243 µM) | 8 (≈ 15.2 µM) | 2 | 8 (≈ 15.2 µM) | 16 | 128 (≈ 243 µM) | 8 (≈ 15.2 µM) | 1 | 128 (≈ 243 µM) | 128 (≈ 243 µM) | >1 | > 128 | MIC [7]: 128 µg/mL (≈ 243 µM); MBC/MIC [8]: 2; MBC [8]: 128 µg/mL (≈ 243 µM); MIC [8]: 64 µg/mL (≈ 122 µM); MBC/MIC [9]: >8; MBC [9]: > 128 µg/mL; MIC [9]: 16 µg/mL (≈ 30.4 µM) |
| Cc1cc(S(=O)(=O)NC(=O)C=Cc2ccccc2)c(SCc2cccc(C(F)(F)F)c2)cc1Cl [Compound 15, N-[4-Chloro-5-methyl-2-(3-trifluoromethylbenzylthio)benzenesulfonyl]cinnamamide] | 2 | 128 (≈ 243 µM) | 64 (≈ 122 µM) | 79 µg/mL and 150 µM | 86 ± 2 | 93 ± 3 | 165 ± 9 | 16 | 128 (≈ 243 µM) | 8 (≈ 15.2 µM) | 1 | 8 (≈ 15.2 µM) | 16 | 128 (≈ 243 µM) | 8 (≈ 15.2 µM) | 1 | 128 (≈ 243 µM) | 128 (≈ 243 µM) | >2 | > 128 | MBC ([4]; S. epidermidis PCM 2118): 8 µg/mL (≈ 15.2 µM); MBC ([4]; Staphylococcus epidermidis, PCM2118, S. epidermidis PCM 2118, read-out: MBC): 4 to 16 µg/mL (≈ 7.6 to 30.4 µM); MIC [7]: 64 µg/mL (≈ 122 µM); MBC/MIC [8]: 2; MBC [8]: 128 µg/mL (≈ 243 µM); MIC [8]: 64 µg/mL (≈ 122 µM); MBC/MIC [9]: >8; MBC [9]: > 128 µg/mL; MIC [9]: 16 µg/mL (≈ 30.4 µM) |
